According to article PMC10728852, “In Vitro and In Vivo Antidiabetic, α-Glucosidase Inhibition and Antibacterial Activities of Three Brown Algae, Polycladia myrica, Padina antillarum, and Sargassum boveanum, and a Red Alga, Palisada perforata from the Persian Gulf” (Iranian Journal of Pharmaceutical Research : IJPR, 2023):

Target: T1, yeast's α-glucosidase
T1 construct: gene MAL12; yeast enzyme
Assay: colorimetric α-glucosidase inhibition assay
Type: biochemical, Saccharomyces cerevisiae
Conditions: standard drug; substrate and buffer only in supplement
From the text: colorimetric α-glucosidase inhibition assay on yeast's α-glucosidase

C[C@H]1O[C@H](O[C@H]2[C@H](O)[C@@H](O)[C@@H](O[C@H]3[C@H](O)[C@@H](O)C(O)O[C@@H]3CO)O[C@@H]2CO)[C@H](O)[C@@H](O)[C@@H]1N[C@H]1C=C(CO)[C@@H](O)[C@H](O)[C@H]1O (stereo partly shown) [Acarbose]
Enzyme Inhibition IC50: 160.15 ± 27.52 µg/mL
